In ChEMBL document CHEMBL1201862, “PubChem BioAssay data set” (2004):
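Exposure lasted 48 hours, with cells grown in 96-well plates and compounds tested at five concentrations. The concentration for 50% growth inhibition is given as GI50.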 Activity calls are given as the source filed them. Rule as the data show it: active = GI50 up to about 1.1 µM and inactive = higher.

Key:
Assay in all cases: NCI-60 cell line screen, 48 h
[1] = system: OVCAR-4
[2] = system: OVCAR-5
[3] = system: SF-539
[4] = system: SK-MEL-2
[5] = system: MCF7
[6] = system: MDA-N
[7] = system: TK-10
[8] = system: HOP-62
[9] = system: BT-549
[10] = system: UACC-257
[11] = system: MDA-MB-231
[12] = system: SNB-75
[13] = system: T47D
[14] = system: NCI-H522
[15] = system: SF-295
[16] = system: SK-MEL-28
[17] = system: DU-145
[18] = system: MOLT-4
[19] = system: UO-31
[20] = system: RXF 393
[21] = system: EKVX
[22] = system: U-251
[23] = system: SF-268
[24] = system: SK-MEL-5
[25] = system: SK-OV-3
[26] = system: ACHN
[27] = system: NCI-H460
[28] = system: PC-3
[29] = system: A498
[30] = system: A549
[31] = system: SW-620
[32] = system: 786-0
[33] = system: HCT-15
[34] = system: SN12C
[35] = system: MDA-MB-435
[36] = system: CAKI-1
[37] = system: UACC-62
[38] = system: OVCAR-3
[39] = system: K562
[40] = system: NCI/ADR-RES
[41] = system: M14
[42] = system: SNB-19
[43] = system: COLO 205
[44] = system: OVCAR-8
[45] = system: HCT-116
[46] = system: RPMI-8226
[47] = system: KM12
[48] = system: NCI-H23
[49] = system: HT-29
[50] = system: Hs-578T
[51] = system: IGROV-1
[52] = system: HCC 2998
[53] = system: SR
[54] = system: HL-60
[55] = system: NCI-H226
[56] = system: LOX IMVI
[57] = system: CCRF-CEM
[58] = system: Malme-3M
[59] = system: HOP-92

## CCOC(=O)C1=COC(C)(C)CC1=O
[1]
  GI50: > 100 µM (inactive)
[2]
  GI50: > 100 µM (inactive)
[3]
  GI50: > 100 µM (inactive)
[4]
  GI50: > 100 µM (inactive)
[5]
  GI50: > 100 µM (inactive)
[6]
  GI50: > 100 µM (inactive)
[7]
  GI50: > 100 µM (inactive)
[8]
  GI50: > 100 µM (inactive)
[9]
  GI50: > 100 µM (inactive)
[10]
  GI50: > 100 µM (inactive)
[11]
  GI50: > 100 µM (inactive)
[12]
  GI50: > 100 µM (inactive)
[13]
  GI50: > 100 µM (inactive)
[14]
  GI50: > 100 µM (inactive)
[15]
  GI50: > 100 µM (inactive)
[16]
  GI50: > 100 µM (inactive)
[17]
  GI50: > 100 µM (inactive)
[18]
  GI50: > 100 µM (inactive)
[19]
  GI50: > 100 µM (inactive)
[20]
  GI50: > 100 µM (inactive)
[21]
  GI50: > 100 µM (inactive)
[22]
  GI50: > 100 µM (inactive)
[23]
  GI50: > 100 µM (inactive)
[24]
  GI50: > 100 µM (inactive)
[25]
  GI50: > 100 µM (inactive)
[26]
  GI50: > 100 µM (inactive)
[27]
  GI50: > 100 µM (inactive)
[28]
  GI50: > 100 µM (inactive)
[29]
  GI50: > 100 µM (inactive)
[30]
  GI50: > 100 µM (inactive)
[31]
  GI50: > 100 µM (inactive)
[32]
  GI50: > 100 µM (inactive)
[33]
  GI50: > 100 µM
[34]
  GI50: > 100 µM (inactive)
[35]
  GI50: > 100 µM (inactive)
[36]
  GI50: > 100 µM (inactive)
[37]
  GI50: > 100 µM (inactive)
[38]
  GI50: > 100 µM (inactive)
[39]
  GI50: > 100 µM (inactive)
[40]
  GI50: > 100 µM (inactive)
[41]
  GI50: > 100 µM (inactive)
[42]
  GI50: > 100 µM (inactive)
[43]
  GI50: > 100 µM (inactive)
[44]
  GI50: > 100 µM (inactive)
[45]
  GI50: > 100 µM (inactive)
[46]
  GI50: > 100 µM (inactive)
[47]
  GI50: > 100 µM (inactive)
[48]
  GI50: > 100 µM (inactive)
[49]
  GI50: > 100 µM (inactive)
[50]
  GI50: > 100 µM (inactive)

## Cn1nc(-c2ccccc2)nc1[N+](=O)[O-]
[1]
  GI50: > 10 µM (inactive)
[2]
  GI50: > 10 µM (inactive)
[3]
  GI50: > 10 µM (inactive)
[4]
  GI50: > 10 µM (inactive)
[6]
  GI50: > 10 µM (inactive)
[7]
  GI50: > 10 µM (inactive)
[8]
  GI50: > 10 µM (inactive)
[9]
  GI50: > 10 µM (inactive)
[51]
  GI50: > 10 µM (inactive)
[10]
  GI50: > 10 µM (inactive)
[52]
  GI50: > 10 µM (inactive)
[11]
  GI50: > 10 µM (inactive)
[12]
  GI50: > 10 µM (inactive)
[13]
  GI50: > 10 µM (inactive)
[14]
  GI50: > 10 µM (inactive)
[15]
  GI50: > 10 µM (inactive)
[16]
  GI50: > 10 µM (inactive)
[17]
  GI50: > 10 µM (inactive)
[18]
  GI50: > 10 µM (inactive)
[19]
  GI50: > 10 µM (inactive)
[20]
  GI50: > 10 µM (inactive)
[21]
  GI50: > 10 µM (inactive)
[22]
  GI50: > 10 µM (inactive)
[23]
  GI50: > 10 µM (inactive)
[24]
  GI50: > 10 µM (inactive)
[25]
  GI50: > 10 µM (inactive)
[26]
  GI50: > 10 µM (inactive)
[27]
  GI50: > 10 µM (inactive)
[28]
  GI50: > 10 µM (inactive)
[29]
  GI50: > 10 µM (inactive)
[30]
  GI50: > 10 µM (inactive)
[31]
  GI50: > 10 µM (inactive)
[32]
  GI50: > 10 µM (inactive)
[33]
  GI50: > 10 µM
[53]
  GI50: > 10 µM (inactive)
[34]
  GI50: > 10 µM (inactive)
[35]
  GI50: > 10 µM (inactive)
[36]
  GI50: > 10 µM (inactive)
[37]
  GI50: > 10 µM (inactive)
[38]
  GI50: > 10 µM (inactive)
[54]
  GI50: > 10 µM (inactive)
[39]
  GI50: > 10 µM (inactive)
[40]
  GI50: > 10 µM (inactive)
[41]
  GI50: > 10 µM (inactive)
[55]
  GI50: > 10 µM (inactive)
[42]
  GI50: > 10 µM (inactive)
[43]
  GI50: > 10 µM (inactive)
[44]
  GI50: > 10 µM (inactive)
[45]
  GI50: > 10 µM (inactive)
[56]
  GI50: > 10 µM (inactive)
[46]
  GI50: > 10 µM (inactive)
[47]
  GI50: > 10 µM (inactive)
[48]
  GI50: > 10 µM (inactive)
[57]
  GI50: > 10 µM (inactive)
[49]
  GI50: > 10 µM (inactive)
[50]
  GI50: > 10 µM (inactive)
[58]
  GI50: > 10 µM (inactive)
[59]
  GI50: > 10 µM (inactive)

## NCCCNCCS
[3]
  GI50: > 100 µM (inactive)
[5]
  GI50: > 100 µM (inactive)
[6]
  GI50: > 100 µM (inactive)
[8]
  GI50: > 100 µM (inactive)
[9]
  GI50: > 100 µM (inactive)
[51]
  GI50: > 100 µM (inactive)
[11]
  GI50: > 100 µM (inactive)
[12]
  GI50: > 100 µM (inactive)
[13]
  GI50: > 100 µM (inactive)
[14]
  GI50: 91.8 µM (inactive)
[16]
  GI50: > 100 µM (inactive)
[17]
  GI50: > 100 µM (inactive)
[26]
  GI50: > 100 µM (inactive)
[27]
  GI50: > 100 µM (inactive)
[28]
  GI50: > 100 µM (inactive)
[29]
  GI50: > 100 µM (inactive)
[33]
  GI50: 74.3 µM
[35]
  GI50: 65.5 µM (inactive)
[36]
  GI50: 51.8 µM (inactive)
[38]
  GI50: > 100 µM (inactive)
[40]
  GI50: > 100 µM (inactive)
[55]
  GI50: > 100 µM (inactive)
[45]
  GI50: > 100 µM (inactive)
[56]
  GI50: > 100 µM (inactive)
[48]
  GI50: > 100 µM (inactive)
[50]
  GI50: > 100 µM (inactive)
[58]
  GI50: > 100 µM (inactive)

## C=C1N(C)c2ccc(S(=O)(=O)c3ccc4c(c3)C(C)(C)C(=C)N4C)cc2C1(C)C
[1]
  GI50: 35.3 µM (inactive)
[2]
  GI50: 83.9 µM (inactive)
[3]
  GI50: > 100 µM (inactive)
[4]
  GI50: 41.3 µM (inactive)
[5]
  GI50: 29 µM (inactive)
[6]
  GI50: 39 µM (inactive)
[7]
  GI50: 36.1 µM (inactive)
[8]
  GI50: 56.1 µM (inactive)
[9]
  GI50: 26.1 µM (inactive)
[51]
  GI50: 27.3 µM (inactive)
[10]
  GI50: 26.4 µM (inactive)
[52]
  GI50: 34.5 µM (inactive)
[11]
  GI50: 33.6 µM (inactive)
[12]
  GI50: 16.3 µM (inactive)
[13]
  GI50: 24.2 µM (inactive)
[14]
  GI50: 20.7 µM (inactive)
[15]
  GI50: 22.8 µM (inactive)
[16]
  GI50: > 100 µM (inactive)
[17]
  GI50: 60 µM (inactive)
[18]
  GI50: 18 µM (inactive)
[19]
  GI50: 51.6 µM (inactive)
[21]
  GI50: 30.9 µM (inactive)
[22]
  GI50: 31.5 µM (inactive)
[23]
  GI50: 36.6 µM (inactive)
[24]
  GI50: 17.5 µM (inactive)
[25]
  GI50: > 100 µM (inactive)
[26]
  GI50: 77.8 µM (inactive)
[27]
  GI50: 49.8 µM (inactive)
[28]
  GI50: 35.5 µM (inactive)
[29]
  GI50: 37.2 µM (inactive)
[30]
  GI50: 28.6 µM (inactive)
[31]
  GI50: 45 µM (inactive)
[32]
  GI50: 58.5 µM (inactive)
[33]
  GI50: 59.7 µM
[34]
  GI50: 42.2 µM (inactive)
[35]
  GI50: 30.8 µM (inactive)
[36]
  GI50: 62.4 µM (inactive)
[37]
  GI50: 29.1 µM (inactive)
[38]
  GI50: 25.4 µM (inactive)
[54]
  GI50: 27.3 µM (inactive)
[40]
  GI50: 59 µM (inactive)
[41]
  GI50: 31.2 µM (inactive)
[55]
  GI50: > 100 µM (inactive)
[42]
  GI50: 39.2 µM (inactive)
[43]
  GI50: 16.3 µM (inactive)
[44]
  GI50: 27.1 µM (inactive)
[45]
  GI50: 34.5 µM (inactive)
[46]
  GI50: 9.08 µM (inactive)
[47]
  GI50: 45.5 µM (inactive)
[48]
  GI50: 27.4 µM (inactive)
[57]
  GI50: 50.1 µM (inactive)
[49]
  GI50: 47 µM (inactive)
[50]
  GI50: 24.3 µM (inactive)
[58]
  GI50: 19.5 µM (inactive)
[59]
  GI50: 3.85 µM (inactive)
